Common to all, as to assay: inhibition of tumour cell growth, NCI panel, 48 h
In assay [1] the test system is A498 renal.
In assay [2] the test system is A549 NSCLC.
The test system of assay [3] is CAKI-1 renal.
The test system of assay [4] is K-562 leukemia.
In assay [5] the test system is KM12 colon.
For assay [6], the system named is M14 melanoma.
Assay [7] concerns NCI-H460 lung.
Assay [8] relates to SF-539 CNS.
Assay [9] concerns SN12C renal.
Assay [10] deals with UO-31 renal.

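Assay format: 96-well plates, 48-hour exposure. The concentration for 50% growth inhibition is given as GI50. TGI marks complete inhibition of growth.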

For `COc1cc(-c2ncn(/C=C\c3nnco3)n2)cc(C(F)(F)F)c1`, the GI50 in assay [1] was 0.0421 µM; in assay [2], 0.109 µM; in assay [3], 0.154 µM; in [4], 0.122 µM; in [5], 0.705 µM; in assay [6], 0.791 µM. The GI50 in assay [7] is 0.0431 µM; in [8] it was 0.0295 µM; in assay [9], 0.723 µM; in [10], 0.247 µM. In addition, the TGI is 0.619 µM in assay [1]; greater than 68 µM in assay [2]; greater than 100 µM in [3]; greater than 100 µM in assay [4]; greater than 39.3 µM in assay [5]; 37.2 µM in assay [6]. For the same compound, the TGI is greater than 100 µM in assay [7], 0.581 µM in [8], greater than 83.2 µM in assay [9] and greater than 100 µM in assay [10].
`COc1ccc(/C=N\Nc2nc(SCC(C)C)nc(-c3ccc(OC)cc3)c2C#N)cc1`: the GI50 in [1] was 2.49 µM; in assay [2] it was 0.524 µM; in [3] it was 1.55 µM; in assay [4] it was 19.1 µM; in [5], 10.6 µM; in [6] it was 13 µM. In addition, the GI50 is 0.548 µM in [7], 6.28 µM in assay [8], 2.1 µM in assay [9] and 1.5 µM in [10]. The TGI in assay [1] is 7.14 µM; in assay [2], 16.2 µM; in assay [3], 3.96 µM; in assay [4] it was greater than 100 µM; in [5] it was greater than 100 µM; in assay [6] it was 92.2 µM. Moreover, the TGI was 11 µM in [7], 20.1 µM in assay [8], 20.4 µM in assay [9] and 3.73 µM in [10].
Take `COC1=C(OC)[C@]2(OC)c3c(O)c(OC)c4c(c3O[C@@]23O[C@@H](c2ccccc2)CC=C3C1=O)[C@@H](OC)C[C@H](c1ccccc1)O4`: the GI50 was 1.51 µM in assay [1]; 2.21 µM in assay [2]; 0.51 µM in assay [3]; 0.0676 µM in assay [4]; 1.57 µM in [5]; 0.516 µM in [6]. Besides, the GI50 in assay [7] is 1.09 µM; in assay [8], 0.421 µM; in assay [9], 0.317 µM; in [10], 0.957 µM. Also, the TGI stood at 2.94 µM in [1]; 5.02 µM in assay [2]; 1.88 µM in assay [3]; 0.333 µM in assay [4]; 3.12 µM in [5]; 1.86 µM in [6]. Further, the TGI in assay [7] turned out to be 2.56 µM; in [8] it was 1.54 µM; in [9] it was 1.03 µM; in assay [10] it was 2.13 µM.
As to `O=C1C(Sc2ccc3ccccc3c2)=C(Sc2ccc3ccccc3c2)C(=O)c2ccccc21`, the TGI in assay [1] is 33.4 µM; in assay [2] it was 21.7 µM; in [4] it was 19 µM; in assay [6] it was 23.7 µM; in assay [7], greater than 100 µM; in assay [8] it was 22.8 µM. Also, the TGI was found to be 24.7 µM in [9] and 15.8 µM in [10].
In the case of `CC1CCN(CCOc2ccc(CNc3ccc4nc(CCC5CCCCC5)[nH]c4c3)cc2)CC1`, the GI50 is 1.77 µM in assay [1]; 1.87 µM in [3]; 0.594 µM in assay [4]; 1.77 µM in assay [5]; 1.56 µM in [6]; 1.72 µM in assay [7]. Moreover, the GI50 in assay [8] is 1.56 µM; in [9], 1.54 µM; in [10], 1.38 µM. The TGI in assay [1] was 3.7 µM; in assay [3], 3.34 µM; in [4], 2.44 µM; in [5], 3.51 µM; in [6] it was 3.01 µM; in assay [7], 3.34 µM. Besides, the TGI was 3.01 µM in assay [8], 2.95 µM in assay [9] and 2.67 µM in [10].
On to `CN1CCCC1c1cccnc1.O=C(O)c1ccccc1O.O=C([O-])c1ccccc1[OH2+].O=C([O-])c1ccccc1[OH2+].[Mn+2]` (stereo not given), for which the GI50 in assay [1], in assay [2], in [3], in [4], in [5] and in [6] was greater than 100 µM each time. In addition, the GI50 in [9] and in [10] was greater than 100 µM throughout. Besides, the TGI in [1], in assay [2], in assay [3], in [4], in assay [5] and in assay [6] was greater than 100 µM throughout. Further, the TGI in assay [9] and in [10] was greater than 100 µM each time.
As for `N#Cc1cccc(Nc2ncc(-c3ccccc3)o2)c1`, the GI50 in [1] is greater than 22.2 µM; in assay [2], 11.7 µM; in [3] it was 8.44 µM; in assay [4] it was greater than 25 µM; in [5], 8.18 µM; in assay [6], greater than 25 µM. The GI50 in [7] was 11.3 µM; in [8], 10.3 µM; in assay [9], 24.2 µM; in assay [10] it was 7.84 µM. Also, the TGI in assay [1], in assay [2], in assay [3], in [4], in [5] and in [6] was greater than 25 µM throughout. The TGI in [7], in assay [8], in assay [9] and in [10] was greater than 25 µM in each case.
Consider `O=C1/C(=C/c2ccccc2O)N=C(c2ccccc2)N1c1cc(C(F)(F)F)ccc1Cl`, for which the GI50 in assay [1] was 59.4 µM; in assay [2], 75.7 µM; in assay [3] it was 14.3 µM; in assay [4] it was greater than 100 µM; in [5] it was 8.29 µM; in assay [6], 62.5 µM. Moreover, the GI50 in [7] was greater than 100 µM; in assay [8], 59.5 µM; in [9] it was 53.6 µM; in assay [10], 94.2 µM. The TGI is greater than 100 µM in assay [1]; greater than 100 µM in assay [2]; 38.5 µM in [3]; greater than 100 µM in assay [4]; greater than 100 µM in assay [5]; greater than 100 µM in assay [6]. Besides, the TGI in [7], in assay [8], in [9] and in [10] was greater than 100 µM in each case.
On to `CC(=O)CC(=O)CCC(=O)Nc1cccc(C(F)(F)F)c1`, for which the TGI in assay [1], in assay [2], in assay [3], in assay [4], in assay [5] and in assay [6] was greater than 100 µM each time. In addition, the TGI in assay [7], in assay [8], in assay [9] and in assay [10] was greater than 100 µM each time.
On to `N#C/C(=C\c1cc2ccc(N3CCC3)cc2oc1=O)C(=O)N(CC(=O)O)CC(=O)O`, for which the GI50 is greater than 100 µM in assay [1]; greater than 100 µM in assay [2]; greater than 100 µM in [3]; 97.2 µM in [4]; greater than 100 µM in assay [5]; greater than 100 µM in assay [6]. Moreover, the GI50 in [7], in assay [8], in [9] and in assay [10] was greater than 100 µM throughout. The TGI in assay [1], in assay [2], in assay [3], in assay [4], in assay [5] and in assay [6] was greater than 100 µM each time. For the same compound, the TGI in assay [7], in [8], in [9] and in [10] was greater than 100 µM throughout.
In the case of `c1ccc2c(CNCCN3CCNCC3)c3ccccc3c(CNCCN3CCNCC3)c2c1`, the GI50 in assay [1] was 18.3 µM; in assay [2], 35.1 µM; in assay [3], greater than 100 µM; in assay [4], 10.3 µM; in [5] it was 10.3 µM; in assay [6], 22.8 µM. The GI50 in [7] was 25 µM; in assay [8], 16.4 µM; in assay [10], greater than 100 µM. In addition, the TGI in assay [1] was 60.7 µM; in assay [2], greater than 100 µM; in assay [3], greater than 100 µM; in assay [4], 32.7 µM; in [5], 26.8 µM; in assay [6], 60.4 µM. Also, the TGI is 98.3 µM in assay [7], 37 µM in assay [8] and greater than 100 µM in assay [10].
Regarding `O=S(=O)(NCCCNc1nccc(-c2c(-c3ccc(F)cc3)nc3sccn23)n1)c1ccc(F)cc1`, the GI50 in [1] is 2.25 µM; in assay [2], 4.87 µM; in assay [3], 7.8 µM; in [4], 4.62 µM; in [6], 7.06 µM; in assay [7], 5.62 µM. In addition, the figures for the GI50 in [8], in assay [9] and in assay [10] were 42.1 µM, 9.04 µM and 3.8 µM, respectively. Further, the TGI in [1] was 45.6 µM; in [2], greater than 100 µM; in assay [3], greater than 100 µM; in assay [4], greater than 100 µM; in [6] it was greater than 100 µM; in [7], greater than 100 µM. In addition, the TGI in [8], in assay [9] and in assay [10] was greater than 100 µM in each case.
In the case of `CSC1=Nc2c(c(C)c(-c3ccccc3)n2COC(CO)CO)C2=NC(=O)CN12`, the GI50 in assay [1], in [2], in assay [3], in assay [4], in assay [5] and in [7] was greater than 100 µM in each case. For the same compound, the GI50 in assay [8], in assay [9] and in [10] was greater than 100 µM throughout. The TGI in [1], in assay [2], in [3], in assay [4], in assay [5] and in assay [7] was greater than 100 µM throughout. Moreover, the TGI in [8], in [9] and in assay [10] was greater than 100 µM in each case.
Regarding `C/C(=N\NC(=O)C(N)=O)c1c(O)cc(C)oc1=O`, the TGI in [1], in assay [2], in assay [4], in [5], in assay [6] and in assay [7] was greater than 100 µM each time. For the same compound, the TGI in assay [8], in assay [9] and in assay [10] was greater than 100 µM each time.
On to `CC1=NNC(=S)NCCCN2CCN(CCCNC(=S)NN=C(C)C=NNC(=S)NCCCN3CCN(CCCNC(=S)NN=C1)CC3)CC2`, for which the TGI in [1], in assay [2], in assay [3], in [4], in [5] and in assay [6] was greater than 100 µM each time. Moreover, the TGI in [8], in assay [9] and in assay [10] was greater than 100 µM in each case.
On to `Cn1c(C(=O)c2cccc3ccccc23)nc2ccccc21`, for which the GI50 was 8.59 µM in assay [1]; greater than 100 µM in [2]; 61 µM in [3]; greater than 100 µM in assay [4]; greater than 100 µM in [5]; greater than 100 µM in assay [7]. Further, the results for the GI50 in assay [8], in [9] and in assay [10] were greater than 100 µM, greater than 100 µM and 46.1 µM, respectively. Moreover, the TGI in assay [1], in [2], in assay [3], in assay [4], in [5] and in [7] was greater than 100 µM each time. The TGI in [8], in [9] and in assay [10] was greater than 100 µM in each case.
As to `CC(N)CC(=O)O` (stereo not given), the TGI in [1], in assay [2], in assay [4], in assay [5], in assay [6] and in assay [7] was greater than 5000 µM each time. In addition, the TGI in assay [8], in assay [9] and in assay [10] was greater than 5000 µM each time.
For `Cc1cc2c(c(=O)o1)C1=S(SC(c3ccccc3)=C1)S2` (stereo not given), the TGI was 34 µM in assay [1]; greater than 100 µM in [2]; greater than 100 µM in assay [4]; greater than 100 µM in assay [5]; greater than 100 µM in [6]; greater than 100 µM in assay [7]. Further, the figures for the TGI in assay [8], in assay [9] and in assay [10] were 56.4 µM, greater than 100 µM and 94.8 µM, respectively.

The values are drawn from PubChem BioAssay (NCI).
